System: HCC
Assay: Safety and efficacy study of TTI-101 in advanced solid tumors: best response (RECIST v1.1) in HCC participants
Type: in vivo, human
Conditions: for time partial response was sustained / best response: reduction in the sum of overall RECIST targets: non-viral HCC
Method: This study evaluates the safety and efficacy of TTI-101 in advanced solid tumors. TTI-101 was administered twice daily at doses of 1.6 (Cohort 1; n=4), 3.2 (Cohort 2; n=3), or 6.4 mg/kg/dose (Cohort 3; n=8) of a Labrasol/PEG400 formulation (60:40% v/v) or 6.4 mg/kg/dose (Cohort 3a: n=37) or 12.8 mg/kg/dose (Cohort 4; n=10) of oral capsule formulation (composition comprising TTI-101 at a concentration of 92 mg/g in a mixture of Kolliphor RH 40 (PEG-40 hydrogenated castor oil). PEG600. Polysorbate 20, Labrasol, and citric acid). TTI-101 was administered twice daily at 6.4 mg/kg/dose (Cohort 5; n=7) of oral tablet formulation (comprising 200 mg of TTI-101).
These patients had failed all prior lines of therapy (median number of prior therapies=3). Furthermore, a disease control rate (defined as the proportion of patients in whom the best overall response is determined as complete response, partial response or stable disease according to RECIST v1.1) of 60% has been observed in the 15 heavily pre-treated HCC patients (9/15), which is similar to that reported with sorafenib in first-line therapy.

[1] = number of participants, 7 non-viral HCC participants
[2] = number of participants, 8 viral HCC participants
[3] = number of participants, all 15 evaluable HCC participants

## COc1ccc(S(=O)(=O)Nc2cc(-c3c(O)ccc4ccccc34)c(O)c3ccccc23)cc1 [TTI-101, N-(1′,2-dihydroxy-1,2′-binaphthalen-4′-yl)-4-methoxybenzenesulfonamide]
7 non-viral HCC participants
  Disease Control Rate, HCC (non-viral): 57%
8 viral HCC participants
  Disease Control Rate, HCC (viral): 63%
Participant A, 6.4 mg/kg/day
  time partial response was sustained: 11 months
Participant A, 6.4 mg/kg/day, failed sorafenib, pembrolizumab, nivolumab, nivolumab+bevacizumab
  best response: reduction in the sum of overall RECIST targets: 42%
Participant B, 12.8 mg/kg/day
  time partial response was sustained: 14 months
Participant B, 12.8 mg/kg/day, failed lenvatinib and nivolumab
  best response: reduction in the sum of overall RECIST targets: 66%
Participant C, 12.8 mg/kg/day, failed atezolizumab+bevacizumab
  best response: reduction in the sum of overall RECIST targets: 45%
Complete response, partial response or stable disease by RECIST v1.1, 15 heavily pre-treated HCC patients (9/15)
  Disease Control Rate, HCC: 60%
[1]
  Progressive Disease, HCC (non-viral): 3
  Stable Disease, HCC (non-viral): 1
Number of participants, 7 non-viral HCC participants, TTI-101 monotherapy
  Partial Response, HCC (non-viral): 3
[2]
  Progressive Disease, HCC (viral): 3
  Stable Disease, HCC (viral): 5
Number of participants, 8 viral HCC participants, TTI-101 monotherapy
  Partial Response, HCC (viral): 0
[3]
  Progressive Disease, HCC: 6
  Stable Disease, HCC: 6
Number of participants, all 15 evaluable HCC participants, TTI-101 monotherapy, after two 28-day cycles, radiologically confirmed
  Partial Response, HCC: 3

From US20260137638A1, “STAT3 INHIBITORS FOR USE IN THE TREATMENT OF NON-VIRAL LIVER CANCER” (Tyardi Operating Company, Inc., priority 2022, published 2026)
